Data: patent US20060067913A1, “HCV therapy” (priority 2003, published 2006)
Where a SMILES comes first, the peptide text is derived from it.

Experiments:
[1] = Protocol: In this Example, Human Ezrin Peptide therapy comprised oral administration of a 2 mg/2 ml aqueous solution of HEP1 to HCV patients who were also infected with HIV. The patients were treated twice a day for 10 days followed by once a day for 20 days in the absence of any other anti-HIV or anti-HCV therapy. Blood samples from patients were analysed before treatment and 30 days after the end of the 30 day treatment period.
[2] = children; cited from earlier work

CC(C)[C@H](NC(=O)[C@@H](NC(=O)[C@H](CCC(=O)O)NC(=O)[C@H](CCCNC(=N)N)NC(=O)[C@H](CCCNC(=N)N)NC(=O)[C@H](CCCCN)NC(=O)[C@H](CCCCN)NC(=O)[C@H](CCC(=O)O)NC(=O)[C@@H](N)[C@@H](C)O)[C@@H](C)O)C(=O)N[C@@H](CCC(=O)O)C(=O)N[C@@H](CCCNC(=N)N)C(=O)N[C@@H](CCC(=O)O)C(=O)N[C@@H](CCCCN)C(=O)N[C@@H](CCC(=O)O)C(=O)O [HEP1] (H-TEKKRRETVEREKE-OH)
CD4/CD8 index ([1]; HIV+HCV infected patients): improved | average increase of CD4 cells ([1]; HIV+HCV infected patients): 70 cells per microlitre | patients with increased CD4 cells ([1]; HIV+HCV infected patients): 18 of 19 | side effects or adverse events ([1]; during treatment with HEP1): No side effects or adverse events were observed | side-effects or adverse reactions [2]: No side-effects or adverse reactions
